Measured values published in patent US10364247B2, “Preparation and use of novel protein kinase inhibitors” (Ruijin Hospital Affiliated to Shanghai Jiao Tong University …, priority 2015, dated 2019).

Tests used:
[1] = system: SK-MEL-5, SK-MEL-28, and SK-MEL-30 cell lines; experiment: Melanoma cell proliferation; type: cell-based; conditions: SK-MEL-5, SK-MEL-28 (B-Raf V600E), SK-MEL-30 (N-Ras Q61K); FIG. 3
Experimental: The ability of IA-9 to treat melanoma was tested using the SK-MEL-5, SK-MEL-28, and SK-MEL-30 cell lines. SK-MEL-5 and SK-MEL-28 express mutant B-Raf (V600E) and wildtype N-Ras. SK-MEL-30 expresses wildtype B-Raf and mutant N-Ras (Q61K). Cell proliferation was tested using methods described herein.

FLT3 = FLT3 (Homo sapiens, UniProt P36888); experiment: KINOMEscan competition binding
Chain of FLT3 (P36888 27-993): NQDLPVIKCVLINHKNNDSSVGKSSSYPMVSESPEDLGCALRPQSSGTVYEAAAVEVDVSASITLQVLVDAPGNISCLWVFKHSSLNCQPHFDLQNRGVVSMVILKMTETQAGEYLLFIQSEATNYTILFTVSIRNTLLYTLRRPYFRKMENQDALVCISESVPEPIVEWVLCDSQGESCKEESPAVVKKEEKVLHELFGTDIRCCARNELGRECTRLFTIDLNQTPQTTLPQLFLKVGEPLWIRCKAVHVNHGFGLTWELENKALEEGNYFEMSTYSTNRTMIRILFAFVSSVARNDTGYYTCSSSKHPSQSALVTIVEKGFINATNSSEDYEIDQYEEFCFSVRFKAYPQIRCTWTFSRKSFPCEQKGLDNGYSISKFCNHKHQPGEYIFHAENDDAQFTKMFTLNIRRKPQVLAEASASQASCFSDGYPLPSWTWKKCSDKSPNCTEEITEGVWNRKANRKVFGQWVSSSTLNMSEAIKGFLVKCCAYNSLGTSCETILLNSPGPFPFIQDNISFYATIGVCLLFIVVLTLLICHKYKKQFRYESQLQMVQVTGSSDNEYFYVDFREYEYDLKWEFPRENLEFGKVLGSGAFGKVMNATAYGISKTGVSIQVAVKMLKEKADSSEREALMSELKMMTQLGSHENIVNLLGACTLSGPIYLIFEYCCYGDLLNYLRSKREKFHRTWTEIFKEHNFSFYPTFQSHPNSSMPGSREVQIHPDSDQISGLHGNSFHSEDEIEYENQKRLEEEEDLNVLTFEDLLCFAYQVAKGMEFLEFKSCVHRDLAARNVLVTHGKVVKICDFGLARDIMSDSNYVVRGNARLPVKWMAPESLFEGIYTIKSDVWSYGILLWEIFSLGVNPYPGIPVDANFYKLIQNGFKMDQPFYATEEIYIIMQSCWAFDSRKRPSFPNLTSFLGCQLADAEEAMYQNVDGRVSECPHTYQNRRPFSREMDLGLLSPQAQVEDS
Experimental: KINOMEscan™ is based on a competition binding assay that quantitatively measures the ability of a compound to compete with an immobilized, active-site directed ligand (Fabian et al. (2005) Nat. Biotechnol. 23, 329; Karaman et al. (2008) Nat. Biotechnol. 26, 127). The compound was screened at 10 μM, and results for primary screen binding interactions are reported as ‘% Ctrl’, where lower numbers indicate stronger hits. The results for kinases targets with a % Ctrl less than 30 can be seen in Table 2.
FLT3 is a receptor tyrosine kinase; its activating mutations are found in 30% human acute myeloid leukemia (AML)^5.

CML mice = experiment: Mouse CML model, Kaplan-Meier survival; type: in vivo; conditions: 10 mg/kg IA-9 by oral gavage twice a day vs vehicle and 50 mg/kg imatinib; FIG. 2
Experimental: The number (n) of mice treated in each group was indicated.
The activity of IA-9 to treat leukemia was tested in a mouse CML model as described ^4. Bone marrow cells from 5-fluorouracil (5-FU)-treated male BALB/c donor mice 5 days before were infected at a concentration of 1×10^6 cells/mL for 24 hours in a cocktail consisting of DMEM, 15% FCS, 5% WEHI-conditioned medium, 50% viral supernatant, 3 μg/mL polybrene, 2 mmol/L L-glutamine, PSA, 7 ng/mL IL-3, 12 ng/mL IL-6 and 56 ng/mL stem cell factor (SCF; R&D System). The infection was repeated once with freshly made retrovirus-containing cocktail as described above. The infected bone marrow cells were then washed once with phosphate-buffered saline and were injected into lethally irradiated (2 doses of 450 rads each dose administered 4 hours apart) syngeneic mice (female BALB/c; 6 to 8 weeks old) through the tail vein at 4×10^5 cells per mouse. Starting at […] bone marrow transplantation, the recipient mice were treated with vehicle (10% 1-methyl-2-pyrrolidinone:90% PEG-300), 50 mg/kg imatinib or 10 mg/kg IA-9 by oral gavage twice a day.

[2] = target: T1, JAK2(JH1domain-catalytic) (Homo sapiens, UniProt O60674); experiment: KINOMEscan competition binding; conditions: read-out: Percent Control
T1 construct: JAK2(JH1domain-catalytic)
Outline: (§1)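 Primary screen at 10 μM; quantitative competition with immobilized active-site ligand; % Ctrl reported, stronger hits giving lower numbers.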

MLK1 = MLK1 (Homo sapiens, UniProt P80192); experiment: KINOMEscan competition binding; conditions: MLK1 (Entrez MAP3K9), read-out: Percent Control
Outline: as §1

SLK = SLK (Homo sapiens, UniProt Q9H2G2); experiment: KINOMEscan competition binding; conditions: read-out: Percent Control
Outline: as §1

SIK2 = target: T2, SIK2 (Homo sapiens, UniProt Q9H0K1); experiment: KINOMEscan competition binding; conditions: read-out: Percent Control
T2 construct: purchased KINOMEscan (screening service)
T2 sequence (Q9H0K1 whole entry): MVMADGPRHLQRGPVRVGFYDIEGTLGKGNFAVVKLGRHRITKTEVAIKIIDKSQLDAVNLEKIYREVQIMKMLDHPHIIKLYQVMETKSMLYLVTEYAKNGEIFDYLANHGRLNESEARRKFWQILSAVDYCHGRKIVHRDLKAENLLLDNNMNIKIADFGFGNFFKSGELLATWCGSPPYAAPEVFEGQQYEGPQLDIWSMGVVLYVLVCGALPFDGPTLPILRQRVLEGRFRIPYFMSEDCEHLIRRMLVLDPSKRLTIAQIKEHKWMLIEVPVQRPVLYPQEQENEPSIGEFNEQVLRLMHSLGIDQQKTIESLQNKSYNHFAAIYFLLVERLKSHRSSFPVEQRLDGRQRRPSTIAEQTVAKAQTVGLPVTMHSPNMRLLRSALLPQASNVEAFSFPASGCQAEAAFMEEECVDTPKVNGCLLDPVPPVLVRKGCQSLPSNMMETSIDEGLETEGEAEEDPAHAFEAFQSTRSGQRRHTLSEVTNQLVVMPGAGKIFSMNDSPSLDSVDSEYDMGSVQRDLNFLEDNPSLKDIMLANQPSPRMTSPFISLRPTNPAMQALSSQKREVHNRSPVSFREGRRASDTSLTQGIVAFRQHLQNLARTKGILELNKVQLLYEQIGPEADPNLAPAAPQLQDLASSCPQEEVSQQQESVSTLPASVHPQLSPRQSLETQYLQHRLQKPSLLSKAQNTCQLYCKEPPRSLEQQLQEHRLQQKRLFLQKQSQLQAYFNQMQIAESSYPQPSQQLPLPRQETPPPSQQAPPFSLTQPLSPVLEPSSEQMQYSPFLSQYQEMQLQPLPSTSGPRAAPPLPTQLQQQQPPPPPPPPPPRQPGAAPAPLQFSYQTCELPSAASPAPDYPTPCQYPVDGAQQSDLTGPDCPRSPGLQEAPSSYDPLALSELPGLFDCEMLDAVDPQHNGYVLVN
Outline: as §1

[3] = target: ABL1(Q252H)-nonphosphorylated (Homo sapiens, UniProt P00519, Q252H); experiment: KINOMEscan competition binding; conditions: read-out: Percent Control
Outline: as §1

MEK5 = MEK5 (Homo sapiens, UniProt Q13163); experiment: KINOMEscan competition binding; conditions: MEK5 (Entrez MAP2K5), read-out: Percent Control
Chain of MEK5 (Q13163 whole entry): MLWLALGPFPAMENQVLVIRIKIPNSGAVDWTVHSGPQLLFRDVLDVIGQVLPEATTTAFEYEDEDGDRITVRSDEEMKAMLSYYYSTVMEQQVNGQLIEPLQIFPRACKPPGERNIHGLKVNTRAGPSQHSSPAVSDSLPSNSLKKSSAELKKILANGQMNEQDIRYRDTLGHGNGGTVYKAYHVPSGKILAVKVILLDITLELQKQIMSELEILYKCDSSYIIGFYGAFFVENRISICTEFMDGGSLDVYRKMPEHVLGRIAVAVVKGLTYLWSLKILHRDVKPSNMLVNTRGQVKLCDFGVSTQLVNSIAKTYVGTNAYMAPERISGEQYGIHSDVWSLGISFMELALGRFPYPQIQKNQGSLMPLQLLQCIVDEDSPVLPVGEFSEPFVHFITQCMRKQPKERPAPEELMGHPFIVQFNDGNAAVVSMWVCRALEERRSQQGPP
Outline: as §1

TEC = TEC (Homo sapiens, UniProt P42680); experiment: KINOMEscan competition binding; conditions: read-out: Percent Control
Outline: as §1

PIP5K1C = target: T3, PIP5K1C (Homo sapiens, UniProt O60331); experiment: KINOMEscan competition binding; conditions: read-out: Percent Control
T3 construct: purchased KINOMEscan (screening service)
Outline: as §1

EGFR(L861Q) = EGFR(L861Q) (Homo sapiens, UniProt P00533, L861Q); experiment: KINOMEscan competition binding; conditions: read-out: Percent Control
Outline: as §1

RIPK1 = target: T4, RIPK1 (Homo sapiens, UniProt Q13546); experiment: KINOMEscan competition binding; conditions: read-out: Percent Control
T4 construct: purchased KINOMEscan (screening platform)
T4 sequence (Q13546 whole entry): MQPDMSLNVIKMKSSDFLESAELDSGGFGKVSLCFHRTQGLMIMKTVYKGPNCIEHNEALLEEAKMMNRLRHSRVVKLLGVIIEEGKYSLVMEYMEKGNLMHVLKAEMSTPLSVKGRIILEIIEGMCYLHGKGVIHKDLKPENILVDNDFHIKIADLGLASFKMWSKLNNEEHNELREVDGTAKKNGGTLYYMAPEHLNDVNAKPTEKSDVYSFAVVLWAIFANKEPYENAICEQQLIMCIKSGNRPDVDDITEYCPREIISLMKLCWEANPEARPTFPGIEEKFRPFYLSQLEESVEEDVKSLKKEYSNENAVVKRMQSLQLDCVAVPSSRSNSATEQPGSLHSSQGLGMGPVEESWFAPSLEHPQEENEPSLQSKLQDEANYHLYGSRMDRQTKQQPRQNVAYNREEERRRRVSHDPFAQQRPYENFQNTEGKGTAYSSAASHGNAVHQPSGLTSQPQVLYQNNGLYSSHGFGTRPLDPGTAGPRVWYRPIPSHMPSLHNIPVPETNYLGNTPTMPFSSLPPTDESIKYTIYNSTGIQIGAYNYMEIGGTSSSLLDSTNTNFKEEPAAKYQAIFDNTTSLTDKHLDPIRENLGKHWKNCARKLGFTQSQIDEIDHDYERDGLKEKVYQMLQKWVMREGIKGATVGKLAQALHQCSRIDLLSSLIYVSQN
Outline: as §1

IKK-alpha = IKK-alpha (Homo sapiens, UniProt O15111); experiment: KINOMEscan competition binding; conditions: IKK-alpha (Entrez CHUK), read-out: Percent Control
Outline: as §1

EGFR(G719S) = EGFR(G719S) (Homo sapiens, UniProt P00533, G719S); experiment: KINOMEscan competition binding; conditions: read-out: Percent Control
Outline: as §1

EPHB3 = EPHB3 (Homo sapiens, UniProt P54753); experiment: KINOMEscan competition binding; conditions: read-out: Percent Control
Chain of EPHB3 (P54753 34-998): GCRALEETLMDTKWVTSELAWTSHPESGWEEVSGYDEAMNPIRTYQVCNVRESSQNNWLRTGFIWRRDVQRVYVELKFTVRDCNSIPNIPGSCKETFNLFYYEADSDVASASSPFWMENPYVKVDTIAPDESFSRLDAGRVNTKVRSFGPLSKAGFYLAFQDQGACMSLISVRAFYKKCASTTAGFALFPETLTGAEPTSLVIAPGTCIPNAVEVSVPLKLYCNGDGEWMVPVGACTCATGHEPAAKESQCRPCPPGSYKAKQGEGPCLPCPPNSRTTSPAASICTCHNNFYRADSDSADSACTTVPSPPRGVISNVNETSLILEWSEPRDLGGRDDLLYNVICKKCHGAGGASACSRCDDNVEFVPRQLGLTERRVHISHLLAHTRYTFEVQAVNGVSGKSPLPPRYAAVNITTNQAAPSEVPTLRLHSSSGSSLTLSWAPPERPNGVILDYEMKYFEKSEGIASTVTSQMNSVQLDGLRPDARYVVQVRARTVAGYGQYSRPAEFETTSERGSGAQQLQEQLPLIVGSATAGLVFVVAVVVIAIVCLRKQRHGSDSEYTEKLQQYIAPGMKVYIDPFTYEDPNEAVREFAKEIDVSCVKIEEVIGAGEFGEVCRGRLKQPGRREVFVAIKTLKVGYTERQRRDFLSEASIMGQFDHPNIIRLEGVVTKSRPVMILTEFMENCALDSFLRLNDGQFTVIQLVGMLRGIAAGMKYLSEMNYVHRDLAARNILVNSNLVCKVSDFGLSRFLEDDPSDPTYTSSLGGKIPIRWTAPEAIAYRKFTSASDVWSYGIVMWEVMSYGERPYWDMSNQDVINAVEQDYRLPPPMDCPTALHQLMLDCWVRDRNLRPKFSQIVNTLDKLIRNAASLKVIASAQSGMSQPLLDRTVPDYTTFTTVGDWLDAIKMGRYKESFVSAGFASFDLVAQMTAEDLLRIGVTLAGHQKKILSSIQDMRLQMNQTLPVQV
Outline: as §1

EPHA6 = EPHA6 (Homo sapiens, UniProt Q9UF33); experiment: KINOMEscan competition binding; conditions: read-out: Percent Control
Chain of EPHA6 (Q9UF33 23-1036): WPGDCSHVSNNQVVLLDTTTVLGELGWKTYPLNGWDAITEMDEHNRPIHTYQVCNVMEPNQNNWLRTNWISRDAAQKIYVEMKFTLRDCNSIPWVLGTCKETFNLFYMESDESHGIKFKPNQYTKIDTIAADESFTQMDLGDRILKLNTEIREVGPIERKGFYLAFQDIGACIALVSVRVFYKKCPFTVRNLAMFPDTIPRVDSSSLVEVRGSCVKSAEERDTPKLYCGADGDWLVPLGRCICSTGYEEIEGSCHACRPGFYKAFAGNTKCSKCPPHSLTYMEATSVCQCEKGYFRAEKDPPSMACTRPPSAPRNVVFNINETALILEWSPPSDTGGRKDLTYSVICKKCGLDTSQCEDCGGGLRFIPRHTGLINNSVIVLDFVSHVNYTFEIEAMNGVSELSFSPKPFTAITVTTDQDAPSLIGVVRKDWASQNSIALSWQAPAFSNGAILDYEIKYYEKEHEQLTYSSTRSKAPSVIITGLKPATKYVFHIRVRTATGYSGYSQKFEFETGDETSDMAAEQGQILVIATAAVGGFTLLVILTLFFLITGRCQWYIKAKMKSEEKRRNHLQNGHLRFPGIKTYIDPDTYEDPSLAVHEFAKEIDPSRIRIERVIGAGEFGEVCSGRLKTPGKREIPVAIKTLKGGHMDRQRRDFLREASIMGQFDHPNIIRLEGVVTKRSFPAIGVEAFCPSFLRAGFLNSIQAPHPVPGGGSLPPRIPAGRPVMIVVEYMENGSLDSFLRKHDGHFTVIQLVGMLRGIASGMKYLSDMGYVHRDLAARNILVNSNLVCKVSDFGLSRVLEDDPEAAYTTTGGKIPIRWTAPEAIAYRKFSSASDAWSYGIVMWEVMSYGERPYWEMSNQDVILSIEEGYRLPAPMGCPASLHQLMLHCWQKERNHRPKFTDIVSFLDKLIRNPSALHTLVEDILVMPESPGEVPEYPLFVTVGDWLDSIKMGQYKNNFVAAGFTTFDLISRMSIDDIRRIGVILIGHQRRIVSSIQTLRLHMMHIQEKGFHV
Outline: as §1

[4] = target: T5, JAK1(JH1domain-catalytic) (Homo sapiens, UniProt P23458); experiment: KINOMEscan competition binding; conditions: read-out: Percent Control
T5 construct: JAK1(JH1domain-catalytic)
Outline: as §1

Cc1ccc(Nc2ncc3c(n2)N(C)CN(c2cc(NC(=O)c4cccc(C(F)(F)F)c4)ccc2C)C3)cn1 [IA-9, N-(4-methyl-3-(1-methyl-7-((6-methylpyridin-3-yl)amino)-1,4-dihydropyrimido[4,5-d]pyrimidin-3(2H)-yl)phenyl)-3-(trifluoromethyl)benzamide]
reduction of proliferation of melanoma cells [1]: reduce the proliferation of melanoma cells
remaining binding at 10 µM (FLT3; FLT3, 10 μM, read-out: Percent Control): 0.2%
binding to FLT3 kinase (in words) (FLT3; KINOMEscan data): bind(s) FLT3 kinase strongly
anti-leukemia activity (Kaplan-Meier survival) (CML mice): significantly stronger anti-leukemia activity
remaining binding at 10 µM [2]: 0.35%
remaining binding at 10 µM (MLK1): 5.7%
remaining binding at 10 µM (SLK): 6.1%
remaining binding at 10 µM (SIK2): 21%
remaining binding at 10 µM [3]: 0.75%
remaining binding at 10 µM (MEK5): 0.3%
remaining binding at 10 µM (TEC): 0.55%
remaining binding at 10 µM (PIP5K1C): 21%
remaining binding at 10 µM (EGFR(L861Q)): 0%
remaining binding at 10 µM (RIPK1): 28%
remaining binding at 10 µM (IKK-alpha): 1%
remaining binding at 10 µM (EGFR(G719S)): 0%
remaining binding at 10 µM (EPHB3): 0%
remaining binding at 10 µM (EPHA6): 0%
remaining binding at 10 µM [4]: 2%
